According to patent US20140370320A1, “WOOD PRESERVATIVE” (Arch Wood Protection Pty Ltd, priority 2011, published 2014):

Experiments:
Coniophora olivacea = assay: Laboratory fungal bioassay (Example 6), mass loss of treated, leached radiata pine sapwood; format: cell-based
Experimental: (§1) The bioassay was carried out in accordance with recognised methods (see, Protocols for the Assessment of Wood Preservatives, Australasian Wood Preservation Committee, March 2007 Revision, Ensis, Clayton).
(§2) Radiata pine sapwood (20×20×10 mm) specimens were treated with various preservative formulations. After drying the specimens were saturated with water and leached in a shaking water-bath at 35° C. for seven days, with daily changes of water. After leaching, the specimens were vacuum oven dried, before being sterilised in readiness for the fungal bioassay. The bioassay was carried out in accordance with standard laboratory techniques, by an independent research provider.
(§3) Mass loss was used to determine the effectiveness of a preservative treatment. […] Decay is deemed to have been prevented if the mass loss is less than 3%.
Some basidiomycete decay fungi are more tolerant to azoles that others. In this bioassay, a selection of brown rot fungi were chosen. One of those chosen, Coniophora olivacea, is relatively resistant to azoles.

Fomitopsis lilacinogilva = assay: as above; format: cell-based
Experimental: as §1, §2, §3
Fomitopsis lilacinogilva is a wood-rotting bracket fungus common in many places of Gondwanaland origin. It is found on logs, stumps, and some outdoor wooden constructions. It forms fans, shelves, pads or crusts, to 100 mm across, is hairy, crusted above, zoned pinkish and brownish. The results against Fomitopsis lilacinogilva were less spectacular. Azole/zinc 1:2 gave 10% mass loss; 1:1 gave 15.9% mass loss; and azoles alone gave 19.9% mass loss versus the control (71.5% mass loss).

[1] = tested on: decay of Radiata pine sapwood panels (field exposure, Hawaii); assay: Hawaiian field trial, flat panel test on treated radiata pine sapwood panels
Experimental: Radiata pine sapwood panels (200×70×25 mm) were treated with various preservatives and exposed on racks at 45°, using a method generally described as the “flat panel test” (Reference: Australasian Wood Preservation Committee, Protocols for Assessment of Wood Preservatives, March 2007 Revision, pp. 32). Untreated controls, solvent-treated controls and panels treated with reference preservatives (e.g., CCA) were also included in this field test. Note: All formulations contained the insecticide permethrin at a concentration sufficient to deliver approximately 0.02% m/m active in the treated panels. After approximately three years outdoor exposure in Hawaii, the specimens were rated using a typical 0 to 10 rating system (e.g., Evaluation Standard […], AWPA Book of Standards, 2010, American Wood Protection Association, Birmingham, Ala.), where 7 is the lowest score where the specimen is deemed still to be serviceable.

[2] = retention 0.1% m/m (as Zn metal)
[3] = retention 0.2% m/m (as Zn metal)
[4] = retention 0.3% m/m (as Zn metal)

Substance | C. olivacea Mass Loss (%) (Coniophora olivacea; [2]) | C. olivacea Mass Loss (%) (Coniophora olivacea; [3]) | C. olivacea Mass Loss (%) (Coniophora olivacea; [4]) | F. lilacinogilva Mass Loss (%) (Fomitopsis lilacinogilva; [2]) | F. lilacinogilva Mass Loss (%) (Fomitopsis lilacinogilva; [3]) | F. lilacinogilva Mass Loss (%) (Fomitopsis lilacinogilva; [4]) | Comment (decay state of panels) ([1]; retention 0.11% m/m Cu, approx. three years outdoor exposure in Hawaii, permethrin approx. 0.02% m/m) | Minimum effective retention to prevent decay, as copper ([1]; three year inspection, Hawaii, expressed as copper) [% m/m]
zinc naphthenate [ZnN] | 50.5 | 42.8 | 28.4 | 65.8 | 60.2 | 53.5 |  | 
copper naphthenate |  |  |  |  |  |  | Heavily decayed | > 0.11
